This passage reports IC50 results from patent US10336761B2, “TGFβ receptor antagonist” (BRISTOL-MYERS SQUIBB COMPANY, priority 2015, dated 2019).

pIC50: −log10 of the molar value.

The assay addresses HIS-TGFβR1 T204D (Homo sapiens (Human), UniProt P36897, T204D). The assay is described as follows: HTRF probe-displacement assay, HIS-TGFβR1 T204D. In kind it is binding. Conditions: 1 hour at room temperature. Background: TR-FRET usually uses a lanthanide donor and a delayed reading to cut background.

HIS-TGFβR1 T204D, sequence (P36897 34-503 T204D): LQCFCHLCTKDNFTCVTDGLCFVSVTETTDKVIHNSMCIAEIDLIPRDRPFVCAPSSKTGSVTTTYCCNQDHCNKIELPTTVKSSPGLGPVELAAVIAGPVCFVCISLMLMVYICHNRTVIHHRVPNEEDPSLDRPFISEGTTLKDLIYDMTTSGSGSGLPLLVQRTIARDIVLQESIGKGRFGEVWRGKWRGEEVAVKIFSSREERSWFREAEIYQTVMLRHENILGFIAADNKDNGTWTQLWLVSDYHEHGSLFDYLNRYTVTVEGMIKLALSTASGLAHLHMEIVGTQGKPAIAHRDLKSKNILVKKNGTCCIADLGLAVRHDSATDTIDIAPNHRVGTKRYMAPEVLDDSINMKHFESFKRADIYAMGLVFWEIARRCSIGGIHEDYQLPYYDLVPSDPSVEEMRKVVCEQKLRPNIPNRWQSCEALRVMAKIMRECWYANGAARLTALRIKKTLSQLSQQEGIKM

In the case of `O=C(N[C@@H]1CCCC[C@H]1O)c1cnccc1Nc1nc(-c2cccc(C(F)F)n2)nn2cccc12` [Example 180, 4-({2-[6-(difluoromethyl)pyridin-2-yl]pyrrolo[2,1-f][1,2,4]triazin-4-yl}amino)-N-[(1R,2R)-2-hydroxycyclohexyl]pyridine-3-carboxamide], the negative logarithm of the IC50 (pIC50) is 6.42. Then `O=C(NCc1ccccn1)c1cnccc1Nc1nc(-c2cccc(C(F)F)n2)nn2cccc12` [Example 181, 4-({2-[6-(difluoromethyl)pyridin-2-yl]pyrrolo[2,1-f][1,2,4]triazin-4-yl}amino)-N-(pyridin-2-ylmethyl)pyridine-3-carboxamide], with 7.49; and `CCc1nnc(CNC(=O)c2cnccc2Nc2nc(-c3cccc(C(F)F)n3)nn3cccc23)o1` [Example 182, 4-({2-[6-(difluoromethyl)pyridin-2-yl]pyrrolo[2,1-f][1,2,4]triazin-4-yl}amino)-N-[(5-ethyl-1,3,4-oxadiazol-2-yl)methyl]pyridine-3-carboxamide], with 7.80; and `O=C(NCc1nccs1)c1cnccc1Nc1nc(-c2cccc(C(F)F)n2)nn2cccc12` [Example 183, 4-({2-[6-(difluoromethyl)pyridin-2-yl]pyrrolo[2,1-f][1,2,4]triazin-4-yl}amino)-N-(1,3-thiazol-2-ylmethyl)pyridine-3-carboxamide], with 7.36.

For `CCCNC(=O)c1cnccc1Nc1nc(-c2cccc(C(F)F)n2)nn2cccc12` [Example 184, 4-({2-[6-(difluoromethyl)pyridin-2-yl]pyrrolo[2,1-f][1,2,4]triazin-4-yl}amino)-N-propylpyridine-3-carboxamide], the negative logarithm of the IC50 (pIC50) was 7.85. The value for `O=C(c1cnccc1Nc1nc(-c2cccc(C(F)F)n2)nn2cccc12)N1CCC(O)(c2ccccc2)CC1` [Example 185, 1-[4-({2-[6-(difluoromethyl)pyridin-2-yl]pyrrolo[2,1-f][1,2,4]triazin-4-yl}amino)pyridine-3-carbonyl]-4-phenylpiperidin-4-ol] was 5.92; that for `O=C(c1cnccc1Nc1nc(-c2cccc(C(F)F)n2)nn2cccc12)N1CCCC1` [Example 186, N-{2-[6-(difluoromethyl)pyridin-2-yl]pyrrolo[2,1-f][1,2,4]triazin-4-yl}-3-(pyrrolidine-1-carbonyl)pyridin-4-amine] was 7.49; that for `CC(C)(O)CCNC(=O)c1cnccc1Nc1nc(-c2cccc(C(F)F)n2)nn2cccc12` [Example 187, 4-({2-[6-(difluoromethyl)pyridin-2-yl]pyrrolo[2,1-f][1,2,4]triazin-4-yl}amino)-N-(3-hydroxy-3-methylbutyl)pyridine-3-carboxamide] was 7.68.

The compound `CC(C)(O)CNC(=O)c1cnccc1Nc1nc(-c2cccc(C(F)F)n2)nn2cccc12` [Example 188, 4-({2-[6-(difluoromethyl)pyridin-2-yl]pyrrolo[2,1-f][1,2,4]triazin-4-yl}amino)-N-(2-hydroxy-2-methylpropyl)pyridine-3-carboxamide] gave a negative-log IC50 (pIC50) of 7.31. The value for `O=C(c1cnccc1Nc1nc(-c2cccc(C(F)F)n2)nn2cccc12)N1CCC1` [Example 189, 3-(azetidine-1-carbonyl)-N-{2-[6-(difluoromethyl)pyridin-2-yl]pyrrolo[2,1-f][1,2,4]triazin-4-yl}pyridin-4-amine] was 8.37. For `CCOC(=O)CNC(=O)c1cnccc1Nc1nc(-c2cccc(C(F)F)n2)nn2cccc12` [Example 190, Ethyl 2-{[4-({2-[6-(difluoromethyl)pyridin-2-yl]pyrrolo[2,1-f][1,2,4]triazin-4-yl}amino)pyridin-3-yl]formamido}acetate], the pIC50 is 7.66. Compared with the last compound, the pIC50 is 0.71 log units lower. In the case of `O=C(NCc1nc[nH]n1)c1cnccc1Nc1nc(-c2cccc(C(F)F)n2)nn2cccc12` [Example 191, 4-({2-[6-(difluoromethyl)pyridin-2-yl]pyrrolo[2,1-f][1,2,4]triazin-4-yl}amino)-N-(1H-1,2,4-triazol-3-ylmethyl)pyridine-3-carboxamide], the negative logarithm of the IC50 (pIC50) is 7.19.

In turn, `O=C(NCCO)c1cnccc1Nc1nc(-c2cccc(C(F)F)n2)nn2cccc12` [Example 192, 4-({2-[6-(difluoromethyl)pyridin-2-yl]pyrrolo[2,1-f][1,2,4]triazin-4-yl}amino)-N-(2-hydroxyethyl)pyridine-3-carboxamide] gave a pIC50 of 8.41. In turn, `O=C(NC1CCC1)c1cnccc1Nc1nc(-c2cccc(C(F)F)n2)nn2cccc12` [Example 193, N-cyclobutyl-4-({2-[6-(difluoromethyl)pyridin-2-yl]pyrrolo[2,1-f][1,2,4]triazin-4-yl}amino)pyridine-3-carboxamide] showed a negative logarithm of the IC50 (pIC50) of 7.64. As to `CC(C)NC(=O)c1cnccc1Nc1nc(-c2cccc(C(F)F)n2)nn2cccc12` [Example 194, 4-({2-[6-(difluoromethyl)pyridin-2-yl]pyrrolo[2,1-f][1,2,4]triazin-4-yl}amino)-N-(propan-2-yl)pyridine-3-carboxamide], the pIC50 is 6.96. In turn, `O=C(NCc1cocn1)c1cnccc1Nc1nc(-c2cccc(C(F)F)n2)nn2cccc12` [Example 195, 4-({2-[6-(difluoromethyl)pyridin-2-yl]pyrrolo[2,1-f][1,2,4]triazin-4-yl}amino)-N-(1,3-oxazol-4-ylmethyl)pyridine-3-carboxamide] showed a negative-log IC50 (pIC50) of 7.59. On to `CC(C)(C)OC(=O)CNC(=O)c1cnccc1Nc1nc(-c2cccc(C(F)F)n2)nn2cccc12` [Example 196, tert-butyl 2-{[4-({2-[6-(difluoromethyl)pyridin-2-yl]pyrrolo[2,1-f][1,2,4]triazin-4-yl}amino)pyridin-3-yl]formamido}acetate], for which the pIC50 is 6.64. Compound `O=C(NCc1ccn[nH]1)c1cnccc1Nc1nc(-c2cccc(C(F)F)n2)nn2cccc12` [Example 197, 4-({2-[6-(difluoromethyl)pyridin-2-yl]pyrrolo[2,1-f][1,2,4]triazin-4-yl}amino)-N-(1H-pyrazol-5-ylmethyl)pyridine-3-carboxamide] gave a pIC50 of 7.38.

Regarding `O=C(N[C@@H]1CCC[C@@H]1O)c1cnccc1Nc1nc(-c2cccc(C(F)F)n2)nn2cccc12` [Example 198, 4-({2-[6-(difluoromethyl)pyridin-2-yl]pyrrolo[2,1-f][1,2,4]triazin-4-yl}amino)-N-[(1R,2S)-2-hydroxycyclopentyl]pyridine-3-carboxamide], the negative-log IC50 (pIC50) was 6.85. `O=C(N[C@H]1CCC[C@@H]1O)c1cnccc1Nc1nc(-c2cccc(C(F)F)n2)nn2cccc12` [Example 199, 4-({2-[6-(difluoromethyl)pyridin-2-yl]pyrrolo[2,1-f][1,2,4]triazin-4-yl}amino)-N-[(1S,2S)-2-hydroxycyclopentyl]pyridine-3-carboxamide] had a pIC50 of 7.21.

Turning to `O=C(c1cnccc1Nc1nc(-c2cccc(C(F)F)n2)nn2cccc12)N1CCC(O)CC1` [Example 200, 1-[4-({2-[6-(difluoromethyl)pyridin-2-yl]pyrrolo[2,1-f][1,2,4]triazin-4-yl}amino)pyridine-3-carbonyl]piperidin-4-ol], the negative logarithm of the IC50 (pIC50) was 5.46. As for `O=C(NC1CCC(F)(F)CC1)c1cnccc1Nc1nc(-c2cccc(C(F)F)n2)nn2cccc12` [Example 201, N-(4,4-difluorocyclohexyl)-4-({2-[6-(difluoromethyl)pyridin-2-yl]pyrrolo[2,1-f][1,2,4]triazin-4-yl}amino)pyridine-3-carboxamide], the pIC50 is 6.39. Regarding `O=C(NCCC(F)(F)F)c1cnccc1Nc1nc(-c2cccc(C(F)F)n2)nn2cccc12` [Example 202, 4-({2-[6-(difluoromethyl)pyridin-2-yl]pyrrolo[2,1-f][1,2,4]triazin-4-yl}amino)-N-(3,3,3-trifluoropropyl)pyridine-3-carboxamide], the negative-log IC50 (pIC50) is 6.85. With `O=C(c1cnccc1Nc1nc(-c2cccc(C(F)F)n2)nn2cccc12)N1CCC(F)(F)CC1` [Example 203, N-{2-[6-(difluoromethyl)pyridin-2-yl]pyrrolo[2,1-f][1,2,4]triazin-4-yl}-3-(4,4-difluoropiperidine-1-carbonyl)pyridin-4-amine], the negative logarithm of the IC50 (pIC50) is 6.12. In turn, `CCOC(=O)CCNC(=O)c1cnccc1Nc1nc(-c2cccc(C(F)F)n2)nn2cccc12` [Example 204, Ethyl 3-{[4-({2-[6-(difluoromethyl)pyridin-2-yl]pyrrolo[2,1-f][1,2,4]triazin-4-yl}amino)pyridin-3-yl]formamido}propanoate] gave a pIC50 of 7.28. Then `COCc1noc(CNC(=O)c2cnccc2Nc2nc(-c3cccc(C(F)F)n3)nn3cccc23)n1` [Example 205, 4-({2-[6-(difluoromethyl)pyridin-2-yl]pyrrolo[2,1-f][1,2,4]triazin-4-yl}amino)-N-{[3-(methoxymethyl)-1,2,4-oxadiazol-5-yl]methyl}pyridine-3-carboxamide], with 7.66. With `COc1cccc(-c2nc(Nc3ccncc3CO)c3cccn3n2)n1` [Example 206, (4-{[2-(6-methoxypyridin-2-yl)pyrrolo[2,1-f][1,2,4]triazin-4-yl]amino}pyridin-3-yl)methanol], the negative logarithm of the IC50 (pIC50) is 8.04. The value for `COc1cccc(-c2nc(Nc3ccncc3F)c3cc(CNCC(C)(C)O)cn3n2)n1` [Example 207, 1-[({4-[(3-fluoropyridin-4-yl)amino]-2-(6-methoxypyridin-2-yl)pyrrolo[2,1-f][1,2,4]triazin-6-yl}methyl)amino]-2-methylpropan-2-ol] was 5.77. In turn, `COc1cccc(-c2nc(Nc3ccncc3F)c3cc(CNC[C@@H](F)C(C)(C)O)cn3n2)n1` [Example 208, (3R)-3-fluoro-4-[({4-[(3-fluoropyridin-4-yl)amino]-2-(6-methoxypyridin-2-yl)pyrrolo[2,1-f][1,2,4]triazin-6-yl}methyl)amino]-2-methylbutan-2-ol] gave a pIC50 of 6.06. Then `COc1cccc(-c2nc(Nc3ccncc3F)c3cc(CNCCCN4CCS(=O)(=O)CC4)cn3n2)n1` [Example 209, 4-{3-[({4-[(3-fluoropyridin-4-yl)amino]-2-(6-methoxypyridin-2-yl)pyrrolo[2,1-f][1,2,4]triazin-6-yl}methyl)amino]propyl}-1,4-thiomorpholine-1,1-dione], with 5.11.

The term pIC50 denotes the negative decadic logarithm of the IC50, by convention in mol/L. A low value points to a large IC50.
